In PubChem BioAssay (NCI):
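48-hour exposure; five concentrations; linearly interpolated endpoints. TGI denotes the concentration required for complete inhibition of growth.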

Key:
Assay in all cases: NCI tumour cell line growth inhibition, 48 h
EKVX NSCLC = test system: EKVX NSCLC
HCT-15 colon = test system: HCT-15 colon
HOP-62 NSCLC = test system: HOP-62 NSCLC
HOP-92 NSCLC = test system: HOP-92 NSCLC
IGROV1 ovarian = test system: IGROV1 ovarian
MDA-N = test system: MDA-N
NCI-H460 lung = test system: NCI-H460 lung
OVCAR-8 ovarian = test system: OVCAR-8 ovarian
RXF 393 renal = test system: RXF 393 renal
SW-620 colon = test system: SW-620 colon

| SMILES | TGI (EKVX NSCLC) [µM] | TGI (HCT-15 colon) [µM] | TGI (HOP-62 NSCLC) [µM] | TGI (HOP-92 NSCLC) [µM] | TGI (IGROV1 ovarian) [µM] | TGI (MDA-N) [µM] | TGI (NCI-H460 lung) [µM] | TGI (OVCAR-8 ovarian) [µM] | TGI (RXF 393 renal) [µM] | TGI (SW-620 colon) [µM] |
| --- | --- | --- | --- | --- | --- | --- | --- | --- | --- | --- |
| CCOC(=O)N(C)CCC1CC=CC(=O)C1c1cccc(OC)c1OC (stereo not given) | 89.8 | 31.1 | > 100 | > 100 | > 100 | 36.4 | 48.2 | > 100 | 27.5 | > 100 |
| N#CCN(Cc1ccccc1)[C@H]1CCC[C@]1(O)/C=C/c1ccc2c(c1)OCO2 | > 100 | 60.2 | 82.6 | 60.9 | 92.2 | 35.7 | 38.2 | 32.5 | 77.3 | 43.3 |
| Nc1c(O)c2c(c(O)c1Cl)C(=O)C=CC2=O | 24.4 | > 36.8 | 15.9 | 31.3 | 14 | 3.24 | 4.64 | 14 | 21 | 9.93 |
| COC(=O)C1=C(O)C(C(=O)OC)[C@]2(O)[C@H](C(=O)OC)[C@H]1C[C@@H](c1ccc(O)cc1)[C@H]2C(=O)OC (stereo not given in full) | > 100 | > 100 | 55.4 | > 100 | > 100 | > 100 | 74.5 | > 100 | 45.1 | > 100 |
| COc1ccc2c(c1)nc1n2C(c2c(F)cccc2F)SC1 (stereo not given) | > 100 | > 100 | > 100 | > 100 | > 100 | > 100 | > 100 | > 100 | > 100 | > 100 |
| C(=C\c1ccccc1)/Cn1nc(-c2ccccc2)nc1-c1cnccn1 | > 100 | > 100 | > 100 | > 100 | > 100 | > 100 | > 100 | > 100 | > 100 | > 100 |
| COc1ccc(C[C@H]2NC[C@H](OC(C)=O)[C@H]2OC(C)=O)cc1 | 0.606 | 0.975 | 2.75 | 0.356 | 0.674 | 0.732 | 1.44 | 2 | 0.651 | 1.14 |
| O=c1ccc(-c2ccc(-n3ccnc3)cc2)nn1CCO | > 100 | > 100 | > 100 | > 100 | > 100 | > 100 | > 100 | > 100 | > 100 | > 100 |
| COP(=N[Si](C)(C)C)(OC)OC | > 100 | > 100 | > 100 | > 100 | > 100 | > 100 | > 100 | > 100 | > 100 | > 100 |
| CCOC(=O)C(C)c1nc2cc(F)c(N3CCOCC3)cc2[nH]c1=O (stereo not given) | > 100 | > 100 | > 100 | > 100 | > 100 | > 100 | > 100 | > 100 | > 100 | > 100 |
| CC1=NN(c2cccc(Cl)c2)C(=N/c2nc3ccccc3s2)/C1=C\c1ccccc1O | > 100 | 81.1 | > 100 | 83.5 | > 100 | 93.5 | 84.4 | > 100 | > 100 | > 100 |
| CSC1=C(C)S/C(=C\c2ccc(/C=C3\SC(C)=C(SC)S3)cc2)S1 | > 100 | > 100 | > 100 | > 100 | > 100 | > 100 | > 100 | > 100 | 79 | > 100 |
| c1ccc2c(c1)Sc1ccccc1N2CCCN1c2ccccc2Sc2ccccc21 | > 100 | > 100 | > 100 | > 100 | > 100 | > 100 | > 100 | > 100 | > 100 | > 100 |
| COC(=O)C1=C(O)C(C(=O)OC)[C@]2(O)[C@H](C(=O)OC)[C@H]1C[C@@H](c1ccc(Cl)cc1Cl)[C@H]2C(=O)OC (stereo not given in full) | > 100 | 27.6 | 20.9 | 23.8 | 19.3 | 11 | 23.2 | 18 | 33.7 | 57 |
| N#Cc1c(Cl)cccc1Oc1ccc(S(=O)(=O)/N=C(\NO)Nc2ccc(Cl)cc2)cc1 | 29 | 34.1 | 34.1 | 24.6 | 34.4 | 29.9 | 36.4 | 43.5 | 32.2 | 34.8 |
| O=c1cnn(C/C=C/CP(=O)(O)O)c(=O)[nH]1 | > 100 | > 100 | > 100 | > 100 | > 100 | > 100 | > 100 | > 100 | > 100 | > 100 |
